According to patent US20230000876A1, “TREATING CANCERS WITH A CYCLIN-DEPENDENT KINASE INHIBITOR” (Nuvation Bio Inc., priority 2021, published 2023):
Read-outs that look alike come from different tables or passages of the source.

Experiments:
MOLT-4-luc = assay: CellTiter-Glo anti-proliferation assay, MOLT-4-luc; type: cell-based
Protocol: (§1) The anti-proliferation effect of 2 compounds (the compound of formula (I) and temozolomide) in 7 CNS metastasis cell lines (MOLT-4-luc, Nalm-6-luc, NCI-H460-luc, ACHN-luc2, PC-9-luc, H1975-luc, and KM12-luc) was evaluated.
(§2) The plating of cells and compound treatments are shown below in the plate map (Table 12). One plate was needed for the test of 2 compounds (the compound of formula (I) and temozolomide) in one cell line. The compound of formula (I) was tested from 10 μM, 3-fold serial dilution. Temozolomide was tested from 100 μM, 3-fold serial dilution.
(§3) All the cell lines were maintained in culture conditions at 37° C. in an atmosphere with 5% CO2 in air. The tumor cells were routinely subcultured. The cells growing in an exponential growth phase were harvested and counted for plating.
(§4) Cells were counted by haemocytometer with Trypan blue staining. Next, 135 μL of cell suspension were plated into the assay plates according to the plate map and 135 μL of assay medium into the blank wells. The plates were incubated at 37° C., 5% CO2, 95% air and 100% relative humidity overnight.
(§5) 4.4.4 Compound Plate (10×) Preparation and Compound Treatment • 10× concentrate compound plate preparation: Add 198 μL of assay medium into each well of the V-bottom plate; then transfer 2 μL of the stock compound solution of each concentration from the stock plate. Add 2 μL of DMSO into the Blank and Control wells. Pipette up and down to mix well. This V-plate is designated as the 10× concentrate compound plate. • For day 0 plate, add 15 μL of the DMSO-medium into the Control wells. The final DMSO concentration was 0.1%. Then directly proceed to cell viability assay. • For assay plate, add 15 μL of the compound-medium of each well from the 10× concentrate compound plate into the cells in 96-well assay plate according to the plate map. Add 15 μL of the DMSO-medium into the Blank and Control wells. The final DMSO concentration was 0.1%. • Return the assay plate into incubator and incubate for 6 days.
(§6) The procedures were performed according to the Promega CellTiter-Glo Luminescent Cell Viability Assay Kit manual (Promega-G7573). • The CellTiter-Glo buffer was thawed and equilibrated to room temperature prior to use. • CellTiter-Glo Substrate was equilibrated to room temperature prior to use. • The entire liquid volume of CellTiter-Glo Buffer was transferred into the amber bottle containing CellTiter-Glo Substrate to reconstitute the lyophilized enzyme/substrate mixture. This forms the CellTiter-Glo Reagent. • The contents were mixed by gently vortexing to obtain a homogeneous solution. • The plate was equilibrated and its contents to room temperature for approximately 30 minutes. 75 μL (equal to the half volume of culture medium present in each well) CellTiter-Glo • Reagent was added in each well. Plates were covered with aluminum foil to protect from light. • The contents were mixed for 2 minutes on an orbital shaker to induce cell lysis. • The plate was incubated at room temperature for 20 minutes to stabilize luminescent signal. • Record luminescence on the 2104 EnVision plate reader.
(§7) Inhibition rate (IR) of the tested compounds was determined by the following formula: IR (%)=(1−(RLU compound−RLU day0)/(RLU control−RLU day0))*100%. The inhibitions of different dose of compound were calculated in Excel file, and then were used to plot inhibition curves and evaluate related parameters, such as Min (%), Max (%) and GI50. The data were interpreted by GraphPad Prism.

MCF-7 tumors = type: in vivo; conditions: for T/C / TGI / Tumor Size: PG-D49
Protocol: The in vivo anti-tumor efficacy of the compound of formula (I) either alone or in combination with fulvestrant on MCF-7 breast tumor model on female Balb/c nude mice was evaluated. The protocol was he same as described in Example 1 with the exception that the dosing schedule of fulvestrant was modified.

ACHN-luc2 = assay: CellTiter-Glo anti-proliferation assay, ACHN-luc2; type: cell-based
Protocol: as §1, §2, §3, §4, §5, §6, §7

NCI-H460-luc = assay: CellTiter-Glo anti-proliferation assay, NCI-H460-luc; type: cell-based
Protocol: as §1, §2, §3, §4, §5, §6, §7

A375 = assay: Cell viability assay, melanoma cell line A375; type: cell-based
Protocol: as §5
as §6, with “This forms the CellTiter-Glo Reagent. • The contents were mixed by gently vortexing to obtain a homogeneous solution. • The plate was equilibrated and its contents to room temperature for approximately 30 minutes. 75 μL (equal to the half volume of culture medium present in each well) CellTiter-Glo • Reagent was added in each well.” left out
Inhibition rate (IR) of the tested compounds was determined by the following formula: IR (%)=(1−(RLU compound−RLU day0)/(RLU control−RLU day0))*100%. The inhibitions of different dose of compound were calculated in Excel file, and then were used to plot inhibition curves and evaluate related parameters, such as Min (%), Max (%) and GI50. […]

[1] = inhibition rate, 6 days, Compound (I) from 10 μM, temozolomide from 100 μM, 3-fold, 9 points

SMILES: CC(C)N1CCOc2c(F)cc(-c3nc(Nc4ccc(C5CCN(C)CC5)cn4)ncc3F)cc21 [Compound (I), 5-fluoro-4-(8-fluoro-4-isopropyl-3,4-dihydro-2H-benzo[b][1,4]oxazin-6-yl)-N-(5-(1-methylpiperidin-4-yl)pyridin-2-yl)pyrimidin-2-amine]
- GI50 (MOLT-4-luc; 144 h, 6 days incubation, read-out: Absolute GI50): 200 nM
- Max (%) (MOLT-4-luc; [1]): 103.5%
- Min (%) (MOLT-4-luc; [1]): −18.4%
- T/C (MCF-7 tumors; 10 mg/kg PO QD): 51.74%
- TGI (MCF-7 tumors; 10 mg/kg PO QD): 55.83%
- Tumor Size (MCF-7 tumors; 10 mg/kg PO QD): 611 mm^3
- T/C (MCF-7 tumors; 30 mg/kg PO QD): 14.39%
- TGI (MCF-7 tumors; 30 mg/kg PO QD): 99.02%
- Tumor Size (MCF-7 tumors; 30 mg/kg PO QD): 170 mm^3
- Toxicity (body weight changes) (MCF-7 tumors; MCF-7 tumor-bearing mice, 50 days): did not display toxicity
- GI50 (ACHN-luc2; ACHN-luc2, 144 h, 6 days incubation, read-out: Absolute GI50): 47 nM
- Max (%) (ACHN-luc2; [1]): 102.9%
- Min (%) (ACHN-luc2; [1]): 6.0%
- GI50 (NCI-H460-luc; NCI-H460-Luc, 144 h, 6 days incubation, read-out: Absolute GI50): 228 nM
- Max (%) (NCI-H460-luc; [1]): 101.1%
- Min (%) (NCI-H460-luc; [1]): 1.9%
- GI50 (A375; Homo sapiens, A-375, read-out: Absolute GI50): 156 nM
- Max (%) (A375; inhibition rate): 101.21%
- Min (%) (A375; inhibition rate): −0.12%
